Measured values reported in patent publication US20180155386A1, “PROGESTERONE ANTAGONISTS” (Evestra, Inc., priority 2011, published 2018).
pIC50: −log10 of the molar value.

Key:
[1] = tested on: progesterone receptor positive breast cancer; conditions: rat model of PR positive breast cancer; cited from earlier work
[2] = tested on: nidation (implantation) sites in pregnant rats; assay: Antinidation test in rat; format: in vivo, rats (Sprague-Daley); conditions: rats with implantation sites / rats treated; 3 mg/day s.c. from day 5 of pregnancy, counted at day 9; 0/3 = full progesterone antagonist
Description: For every compound to be screened in rats (Sprague-Daley) 3 control rats (vehicle treated, s.c.), 3 rats treated (s.c.) with a known progestin antagonist and 3 rats treated (s.c.) with the test compound (3 mg/day) are used. Female rats will be placed with male rats for 3 to 4 days and exam the vagina for sperm plugs every morning. The presence of a sperm plug will indicate day 1 of pregnancy. Pregnant rats will be treated daily with 3 mg of the screened compound at beginning on day 5 of pregnancy. At day 9 of gestation the rats will be euthanized and nidation sites counted.

[3] = tested on: uterine weight of non-pregnant guinea pigs; assay: Uterine weights of guinea pigs; format: in vivo; conditions: 10 mg s.c. from day 10 of cycle; sacrifice day 18; untreated guinea pig 1.2 g; higher than 1.2 g indicates pure progesterone antagonistic activity
Description: 3 Non-pregnant guinea pigs in the luteal phase of the cycle will be treated with 10 mg of the compound subcutaneously beginning on day 10 of the cycle. Animals were sacrificed on day 18 after the start of the treatment and the uterine weights were obtained at the time of sacrifice. Comparisons will be made to onapristone-treated animals at 10 mg/animal/day s.c

[4] = tested on: human breast cancer cell line T47D; assay: In vitro antiproliferative activity in human breast cancer cell line T47D (MTT); format: cell-based; conditions: 168 h, T47D cells, 7 days after cell seeding
Description: Cells from frozen stock were expanded in T75 cell culture flasks. For the experiment, cells in the logarithmic growth phase (70% confluent) were cultivated for 3 day without estradiol and then washed with PBS, detached by trypsination and suspended in 5 ml of fresh RPMI-1640 medium. Cells were centrifuged for 5 min at 1000 rpm and the pellet was resuspended in RPMI-1640 medium.
Cells were seeded in 96-well plates with a density of 5000 cells/well/in 0.18 mL RPMI-1640 medium. Cells were allowed to attach for 24 h. Visual control for viability at 24 h and cell culture medium change. At this time point, compounds were added in 20 μl to the final concentration. After 3 days medium and compounds where changed again. Finally, 7 days after cell seeding, 20 μl MTT-solution was added to each well and 4 h later the formed tetrazolium salt was measured with a photometer.

[5] = target: T1, progesterone receptor-LBD-UAS-bla HEK 293T cells (Homo sapiens, UniProt P06401); assay: Progesterone Antagonist Screen (GeneBLAzer Beta-lactamase reporter, activated by control agonist R5020); format: cell-based; conditions: values relative to RU486, which is 100%; HEK 293T reporter cells, agonist R5020 at EC80
T1 construct: host or cells: HEK 293T
T1 sequence (P06401 679-913 limits assumed): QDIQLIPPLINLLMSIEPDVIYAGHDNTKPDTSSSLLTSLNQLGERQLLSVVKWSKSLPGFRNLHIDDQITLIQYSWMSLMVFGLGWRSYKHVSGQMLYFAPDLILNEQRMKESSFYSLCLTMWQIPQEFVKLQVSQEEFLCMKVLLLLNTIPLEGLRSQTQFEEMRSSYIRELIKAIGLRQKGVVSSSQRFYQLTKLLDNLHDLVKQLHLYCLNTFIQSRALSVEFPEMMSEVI
Description: Determination of the agonist/antagonist nature of the test compounds was carried out using Invitrogen's SelectScreen™ Cell-based nuclear receptor profiling service which uses the GeneBLAzer® Beta-lactamase reporter technology. Basically this assay uses a Beta-lactamase cDNA under transcriptional control of an Upstream Activator Sequence (UAS). The UAS is activated by the GAL4 transcription factor DNA binding domain (DBD), which is expressed as a fusion protein with the target receptor ligand binding domain (LBD). Upon ligand binding, the GAL4(DBD)-NR(LDB) binds to the UAS, which controls transcription of Beta-lactamase. Beta-lactamase cleaves a special engineered fluorescent substrate which results in a change in the measured fluorescence wavelength.
The generalized protocol used for the Progesterone Antagonist Screen, activated by control Agonist R5020 is as follows:
The progesterone receptor-LBD-UAS-bla HEK 293T cells are thawed and prepared as described above for the Agonist screen. 4 μL of a 10× serial dilution of control antagonist RU-486 (starting concentration, 100 nM) or test compounds are added to appropriate wells of a TC-Treated assay plate. 32 μL of cell suspension is added to the wells which is then pre-incubated at 37° C./5% CO2 in a humidified incubator with test compounds and control antagonist titration for 30 minutes. 4 μL of a 10× control agonist (see above) at the predetermined EC80 concentration is added to wells containing the control antagonist or test compounds. The plate is incubated for 16-24 hours at 37° C./5% CO2 in a humidified incubator. 8 μL of 1 μM Substrate Loading Solution is added to each well and the plate is incubated for 2 hours at room temperature. The plate is then read on a fluorescence plate reader (Tecan Safire).

Row | Emax [5] [%] | Compound | development of new tumors [1] | tumor size [1] | Implantation Sites [2] | Uterine Weights of Guinea Pigs Treated with antiprogestins (grams) [3] [grams] | pIC50 [4]
1 | – | COCC(=O)[C@@]1(OC(C)=O)CC[C@H]2[C@@H]3CCC4=CC(=O)CCC4=C3[C@@H](c3ccc(N(C)C)cc3)C[C@@]21C [CDB-4124, Proellex, reference compound] | decrease in the development of new tumors | regression of tumor size | 0/3 | 1.41 | –
2 | 6 | CC(=O)c1ccc([C@H]2C[C@@]3(C)[C@@H](CC[C@@]3(O)C#CC(F)(F)F)[C@@H]3CCC4=CC(=O)CCC4=C32)cc1 [Compound 1a, 11β-(4′-Acetylphenyl)-17β-hydroxy-17-(3,3,3-trifluoro-1-propynyl)-estra-4,9-diene-3-one] | – | – | 1/3 | 1.3 | 7.77
3 | 33 | CC(=O)c1ccc([C@H]2C[C@@]3(C)C(CC[C@@]3(O)/C=C/C(F)(F)F)C3CCC4=CC(=O)CCC4=C32)cc1 (stereo partly drawn) [Compound 1b, 11β-(4′-Acetylphenyl)-17β-hydroxy-17-(3,3,3-trifluoroprop-1(E)-enyl)-estra-4,9-diene-3-one] | – | – | 0/3 | 0.785 | 9.19
4 | 21 | CC(=O)c1ccc([C@H]2C[C@@]3(C)[C@@H](CC[C@@]3(O)CC(F)=C(F)F)[C@@H]3CCC4=CC(=O)CCC4=C32)cc1 [Compound 1c, 11β-(4′-Acetylphenyl)-17β-hydroxy-17-(2,3,3-trifluoroprop-2-enyl)-estra-4,9-diene-3-one] | – | – | 0/3 | 1.8 | 8.51
5 | 119 | C=CC(F)(F)[C@]1(O)CC[C@H]2[C@@H]3CCC4=CC(=O)CCC4=C3[C@@H](c3ccc(C(C)=O)cc3)C[C@@]21C [Compound 1d, 11β-(4′-Acetylphenyl)-17β-hydroxy-17-(1,1-difluoroprop-2-enyl)-estra-4,9-diene-3-one] | – | – | – | – | 9.52
6 | 191 | CCC(F)(F)[C@]1(O)CC[C@H]2[C@@H]3CCC4=CC(=O)CCC4=C3[C@@H](c3ccc(C(C)=O)cc3)C[C@@]21C [Compound 1e, 11β-(4′-Acetyl-phenyl)-17β-hydroxy-17-(1,1-difluoropropyl)-estra-4,9-diene-3-one] | – | – | – | – | 9.52
7 | 91 | C[C@]12C[C@H](c3ccc(C(=O)C4CC4)cc3)C3=C4CCC(=O)C=C4CC[C@H]3[C@@H]1CC[C@@]2(O)C(F)(F)C(F)(F)F [Compound 2a, 11β-(4′-[Cyclopropylcarbonyl]phenyl)-17β-hydroxy-17-(1,1,2,2,2-pentafluoroethyl)-estra-4,9-diene-3-one] | – | – | 0/3 | 2.3 | 8.92
8 | 45 | CC#C[C@]1(O)CC[C@H]2[C@@H]3CCC4=CC(=O)CCC4=C3[C@@H](c3ccc(C(=O)C4CC4)cc3)C[C@@]21C [Compound 2b, 11β-(4′-[Cyclopropylcarbonyl]phenyl)-17β-hydroxy-17-(1-propynyl)-estra-4,9-diene-3-one] | – | – | – | – | 9.19
9 | 2 | C[C@]12C[C@H](c3ccc(C(=O)C4CC4)cc3)C3=C4CCC(=O)C=C4CC[C@H]3[C@@H]1CC[C@@]2(O)CCCO [Compound 2c, 11β-(4′-[Cyclopropylcarbonyl]phenyl)-17β-hydroxy-17-(3-hydroxypropyl)-estra-4,9-diene-3-one] | – | – | – | 1.35 | 8.34
10 | 6 | C[C@]12C[C@H](c3ccc(C(=O)C4CC4)cc3)C3=C4CCC(=O)C=C4CCC3C1CC[C@@]2(O)/C=C\CO (stereo partly drawn) [Compound 2d, 11β-(4′-[Cyclopropylcarbonyl]phenyl)-17β-hydroxy-17-(3-hydroxyprop-1(Z)-enyl)-estra-4,9-diene-3-one] | – | – | – | 0.99 | –
11 | 48 | C=C1CCO[C@]12CCC1C3CCC4=CC(=O)CCC4=C3[C@@H](c3ccc(C(=O)C4CC4)cc3)C[C@@]12C (stereo partly drawn) [Compound 2e, 11β-(4′-[Cyclopropylcarbonyl]phenyl)-17,23-epoxy-19,24-dinor-17α-chola-4,9,20-triene-3-one] | – | – | – | 1.02 | 9.43
12 | 190 | C[C@]12C[C@H](c3ccc(-c4cccnc4)cc3)C3=C4CCC(=O)C=C4CCC3C1CC[C@@]2(O)/C=C/C(F)(F)F (stereo partly drawn) [Compound 3a, 11β-(4′-[3-Pyridinyl]phenyl)-17β-hydroxy-17-(3,3,3-trifluoroprop-1(E)-enyl)-estra-4,9-diene-3-one] | – | – | 0/4 | 0.87 | –
13 | 200 | C=CC(F)(F)[C@]1(O)CC[C@H]2[C@@H]3CCC4=CC(=O)CCC4=C3[C@@H](c3ccc(-c4cccnc4)cc3)C[C@@]21C [Compound 3b, 11β-(4′-[3-Pyridinyl]phenyl)-17β-hydroxy-17-(1,1-difluoroprop-2-enyl)-estra-4,9-diene-3-one] | – | – | 0/4 | – | –
14 | 38 | CC#C[C@]1(O)CC[C@H]2[C@@H]3CCC4=CC(=O)CCC4=C3[C@@H](c3ccc(C(=O)c4ccc(C#N)cc4)cc3)C[C@@]21C [Compound 4, 11β-(4′-[4-Cyanobenzoyl]phenyl)-17β-hydroxy-17-(1-propynyl)-estra-4,9-diene-3-one] | – | – | – | – | –
15 | – | CN(C)c1ccc([C@H]2C[C@]3(C)[C@@H](CC[C@]3(O)CCCO)[C@@H]3CCC4=CC(=O)CCC4=C32)cc1 [ZK98299, reference compound] | – | – | 2/3 | 1.07 | –
